Test: mn = molality of the nth substance listed, in mol/kg
Conditions: 99.6 kPa, Liquid, Vibrating tube method

CCN1C(=O)N(CC)C2NC(=O)NC21 (stereo not given) + O
mass density [kg/m3]
Conditions | 278.15 K | 288.15 K | 298.15 K | 308.15 K | 318.15 K
m1 = 0.01158 | 1000.48 | 999.594 | 997.533 | 994.508 | 990.681
m1 = 0.01315 | 1000.54 | 999.667 | 997.589 | 994.565 | 990.747
m1 = 0.01794 | 1000.76 | 999.871 | 997.801 | 994.774 | 990.935
m1 = 0.02385 | 1001.02 | 1000.12 | 998.052 | 995.029 | 991.185
m1 = 0.02832 | 1001.21 | 1000.32 | 998.231 | 995.196 | 991.363
m1 = 0.03477 | 1001.5 | 1000.6 | 998.521 | 995.477 | 991.629
m1 = 0.04062 | 1001.76 | 1000.85 | 998.752 | 995.71 | 991.866
m1 = 0.04476 | 1001.95 | 1001.03 | 998.934 | 995.885 | 992.035
m1 = 0.04841 | 1002.11 | 1001.18 | 999.081 | 996.03 | 992.176
m1 = 0.0537 | 1002.35 | 1001.42 | 999.318 | 996.256 | 992.398
m1 = 0.05905 | 1002.58 | 1001.63 | 999.528 | 996.468 | 992.605
m1 = 0.06432 | 1002.81 | 1001.87 | 999.742 | 996.678 | 992.818
m1 = 0.06647 | 1002.9 | 1001.96 | 999.836 | 996.759 | 992.893
m1 = 0.06907 | 1003.01 | 1002.07 | 999.94 | 996.876 | 993.011

Source: the NIST ThermoML archive (doi:10.1016/j.jct.2015.05.028)
